The text below walks through data of the supplement of paper PMC11061612.

Test in all cases: Bliss excess, mean over the matrix (fraction); higher = more synergy
Test [1] has as its system BT-474 (Breast Carcinoma). A digest of the protocol:
(§1)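 After 24 hours at 37°C and 5% CO2 in 1536-well plates, cells in DMEM/F12 or RPMI plus 10% FBS received two-drug dose matrices for 72 hours. Viability came from CellTiter-Glo 2.0 luminescence and was scaled as inhibition, anchored at 0 by vehicle wells and at 1 by blank wells. Combination Emax is taken as the second-highest inhibition in the matrix, and Bliss excess as the observed combination effect less EA + EB − EA·EB, with EA and EB the single-agent effects.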

The subject of test [2] is SBC-5 (Small Cell Lung Carcinoma). A digest of the protocol:
as §1

In test [3] the test system is ATN-1 (T-Lymphoblastic Leukemia). Put shortly: as §1
For test [4], the system named is MG-63 (Osteosarcoma). Put shortly:
as §1

The test system of test [5] is C32 (Melanoma). Put shortly: as §1
Test [6] deals with JURL-MK1 (Chronic Myelogenous Leukemia). A digest of the protocol: as §1
Test [7] concerns SK-MEL-24 (Melanoma). Put shortly:
as §1

In test [8] the test system is IGROV-1 (Ovarian Carcinoma). A digest of the protocol: as §1
Test [9] relates to CAL-85-1 (Breast Carcinoma). A digest of the protocol: as §1
Test [10] has as its system NCI-H1048 (Small Cell Lung Carcinoma). A digest of the protocol: as §1
Test [11] deals with OVKATE (Ovarian Carcinoma). Put shortly:
as §1

The test system of test [12] is NCI-H2170 (Squamous Cell Lung Carcinoma). Put shortly: as §1
For test [13], the system named is TK (B-Cell Non-Hodgkin's Lymphoma). Put shortly: as §1
For test [14], the system named is NTERA-2-cl-D1 (Other Solid Carcinomas). A digest of the protocol: as §1
Test [15] concerns SBC-3 (Small Cell Lung Carcinoma). A digest of the protocol:
as §1

The subject of test [16] is NCI-H2452 (Mesothelioma). Put shortly:
as §1

The subject of test [17] is DK-MG (Glioblastoma). Put shortly: as §1
Test [18] concerns SK-N-DZ (Neuroblastoma). A digest of the protocol: as §1
Test [19] has as its system OCI-M1 (Acute Myeloid Leukemia). Put shortly: as §1
For test [20], the system named is SCC90 (Head and Neck Carcinoma). Put shortly: as §1

With `CC1(C)CCC(CN2CCN(c3ccc(C(=O)NS(=O)(=O)c4ccc(NCC5CCOCC5)c([N+](=O)[O-])c4)c(Oc4cnc5[nH]ccc5c4)c3)CC2)=C(c2ccc(Cl)cc2)C1` [Venetoclax] + Cn1cnc2c(F)c(Nc3ccc(Br)cc3Cl)c(C(=O)NOCCO)cc21 [Selumetinib] (first compound max 1 µM, 7x7, partner max 3 µM), the Bliss excess in test [1] was -0.0419; in test [2], -0.0096; in test [3], -0.0324; in [4], -0.0292; in test [5] it was -0.0278; in test [6], -0.0249. Also, the Bliss excess in test [7] was -0.0001; in test [8], -0.0068; in test [9], -0.0368; in test [10] it was -0.0067; in [11], -0.0584; in test [12], -0.0427. Moreover, the Bliss excess in [13] is -0.0251; in test [14] it was -0.0415; in test [15] it was -0.032; in test [16], -0.0501; in test [17] it was -0.0177; in test [18], -0.0156. The Bliss excess in [19] was -0.0203; in [20], 0.161.
